Assay results from PubChem BioAssay (NCI).
“And” between values parts separate entries of the source, which are not always exact repeats. Identical values can stand only once.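 Assay format: 96-well plates, 48-hour exposure. GI50 is the concentration that inhibits growth by half. TGI is the concentration that stops growth completely.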

Tests used:
Test in all cases: inhibition of tumour cell growth, NCI panel, 48 h
SK-MEL-5 melanoma = system: SK-MEL-5 melanoma
UACC-257 melanoma = system: UACC-257 melanoma
COLO 205 colon = system: COLO 205 colon
NCI-H226 lung = system: NCI-H226 lung
HOP-62 NSCLC = system: HOP-62 NSCLC
SR leukemia = system: SR leukemia
U251 CNS = system: U251 CNS
ACHN renal = system: ACHN renal
CCRF-CEM leukemia = system: CCRF-CEM leukemia
HT29 colon = system: HT29 colon

COc1ccc(/C=C2\N=C3SC=C(N)N3C2=O)cc1
GI50 (SK-MEL-5 melanoma): 833 nM | TGI (SK-MEL-5 melanoma): 2.64 µM | GI50 (UACC-257 melanoma): 1.06 µM | TGI (UACC-257 melanoma): 5.33 µM | GI50 (COLO 205 colon): 1.13 µM | TGI (COLO 205 colon): 4.23 µM | GI50 (NCI-H226 lung): 1.16 µM | TGI (NCI-H226 lung): 7.04 µM | GI50 (HOP-62 NSCLC): 2.23 µM | TGI (HOP-62 NSCLC): 15.7 µM | GI50 (SR leukemia): 1020 nM | TGI (SR leukemia): 4.85 µM | GI50 (U251 CNS): 1.32 µM | TGI (U251 CNS): 5.49 µM | GI50 (ACHN renal): 0.711 µM | TGI (ACHN renal): 2.43 µM | GI50 (CCRF-CEM leukemia): 0.4 µM | TGI (CCRF-CEM leukemia): 4.33 µM | GI50 (HT29 colon): 1210 nM | TGI (HT29 colon): 3.37 µM

COc1ccccc1-n1c(SCc2cc(OC)c(OC)c(OC)c2)nc2ccc(Cl)cc2c1=O
GI50 (SK-MEL-5 melanoma): 1470 nM | TGI (SK-MEL-5 melanoma): > 100 µM | GI50 (UACC-257 melanoma): 5.7 µM | TGI (UACC-257 melanoma): > 100 µM | GI50 (COLO 205 colon): 3.03 µM | TGI (COLO 205 colon): > 100 µM | GI50 (NCI-H226 lung): 13.3 µM | TGI (NCI-H226 lung): > 100 µM | GI50 (HOP-62 NSCLC): 9.4 µM | TGI (HOP-62 NSCLC): > 100 µM | GI50 (SR leukemia): 538 nM | TGI (SR leukemia): > 100 µM | GI50 (U251 CNS): 3.72 µM | TGI (U251 CNS): > 100 µM | GI50 (ACHN renal): 7.07 µM | TGI (ACHN renal): > 100 µM | GI50 (CCRF-CEM leukemia): 3.07 µM | TGI (CCRF-CEM leukemia): > 100 µM | GI50 (HT29 colon): 2910 nM | TGI (HT29 colon): > 100 µM

CC/C=C\CCC/C=C1/C(=O)C=C[C@@H]1C/C=C\CCCC(=O)O
GI50 (SK-MEL-5 melanoma): 1720 nM | TGI (SK-MEL-5 melanoma): 3.31 µM | GI50 (UACC-257 melanoma): 10.5 µM | TGI (UACC-257 melanoma): 23.7 µM | GI50 (COLO 205 colon): 5.83 µM | TGI (COLO 205 colon): 18.4 µM | GI50 (NCI-H226 lung): 4.35 µM | TGI (NCI-H226 lung): 30.1 µM | GI50 (HOP-62 NSCLC): 7.61 µM | TGI (HOP-62 NSCLC): 22 µM | GI50 (SR leukemia): 1920 nM | TGI (SR leukemia): 8.57 µM | GI50 (U251 CNS): 3.7 µM | TGI (U251 CNS): 13.6 µM | GI50 (ACHN renal): 1.89 µM | TGI (ACHN renal): 3.61 µM | GI50 (CCRF-CEM leukemia): 2.84 µM | TGI (CCRF-CEM leukemia): 16.2 µM | GI50 (HT29 colon): 2500 nM | TGI (HT29 colon): 5.27 µM

CC(=O)Nc1ccc(-c2nnc(SCC(=O)Nc3ccc(C)cc3)o2)cc1
TGI (SK-MEL-5 melanoma): 27.8 µM | TGI (UACC-257 melanoma): 42 µM | TGI (COLO 205 colon): 31.6 µM | TGI (NCI-H226 lung): 52.4 µM | TGI (HOP-62 NSCLC): > 100 µM | TGI (SR leukemia): 98.2 µM | TGI (U251 CNS): 33.6 µM | TGI (ACHN renal): 70.3 µM | TGI (CCRF-CEM leukemia): > 100 µM | TGI (HT29 colon): 31.1 µM

Oc1c(CN2CCCC2)cc(COCc2ccccc2)c2cccnc12
GI50 (SK-MEL-5 melanoma): 1120 nM | TGI (SK-MEL-5 melanoma): 4.76 µM | GI50 (UACC-257 melanoma): 2.84 µM | TGI (UACC-257 melanoma): 8.25 µM | GI50 (COLO 205 colon): 10.4 µM | TGI (COLO 205 colon): 26.6 µM | GI50 (NCI-H226 lung): 2.69 µM | TGI (NCI-H226 lung): 12 µM | GI50 (HOP-62 NSCLC): 1.65 µM | TGI (HOP-62 NSCLC): 9.5 µM | GI50 (SR leukemia): 1830 nM | TGI (SR leukemia): 16.9 µM | GI50 (U251 CNS): 2.07 µM | TGI (U251 CNS): 13.3 µM | GI50 (ACHN renal): 0.358 µM | TGI (ACHN renal): 10.2 µM | GI50 (CCRF-CEM leukemia): 1.43 µM | TGI (CCRF-CEM leukemia): 15.4 µM | GI50 (HT29 colon): 10400 nM | TGI (HT29 colon): 26.5 µM

CC(C)C(N)(C(=O)O)c1ccccc1 (centres undefined)
TGI (SK-MEL-5 melanoma): > 100 µM | TGI (UACC-257 melanoma): > 100 µM | TGI (COLO 205 colon): > 100 µM | TGI (NCI-H226 lung): > 100 µM | TGI (HOP-62 NSCLC): > 100 µM | TGI (SR leukemia): > 100 µM | TGI (U251 CNS): > 100 µM | TGI (ACHN renal): > 100 µM | TGI (CCRF-CEM leukemia): > 100 µM | TGI (HT29 colon): > 100 µM

Cc1nc(NC(=O)N2CCC[C@H]2C(N)=O)sc1-c1ccnc(C(C)(C)C(F)(F)F)c1
GI50 (SK-MEL-5 melanoma): 11800 nM and > 10000 nM | TGI (SK-MEL-5 melanoma): 24.6 µM and > 10 µM | GI50 (UACC-257 melanoma): 9.58 µM and > 10 µM | TGI (UACC-257 melanoma): 45 µM and > 10 µM | GI50 (COLO 205 colon): 2.75 µM and 1.38 µM | TGI (COLO 205 colon): 19.6 µM and > 10 µM | GI50 (NCI-H226 lung): 5.26 µM and 4.54 µM | TGI (NCI-H226 lung): 45.7 µM and > 10 µM | GI50 (HOP-62 NSCLC): 8.06 µM and > 10 µM | TGI (HOP-62 NSCLC): > 75.1 µM | GI50 (SR leukemia): 8940 nM and > 10000 nM | TGI (SR leukemia): 44.1 µM and > 10 µM | GI50 (U251 CNS): 3.22 µM and 5.54 µM | TGI (U251 CNS): 18.7 µM and > 10 µM | GI50 (ACHN renal): 5.6 µM and > 10 µM | TGI (ACHN renal): > 100 µM | GI50 (CCRF-CEM leukemia): 5.13 µM and 5.71 µM | TGI (CCRF-CEM leukemia): 75.4 µM and > 10 µM | GI50 (HT29 colon): 488 nM and 477 nM | TGI (HT29 colon): 20.8 µM and > 10 µM

COc1ccc2c(c1)OC13Oc4cc(OC)ccc4C=C1CCCC3=C2
GI50 (SK-MEL-5 melanoma): 13600 nM | TGI (SK-MEL-5 melanoma): > 100 µM | GI50 (UACC-257 melanoma): > 100 µM | TGI (UACC-257 melanoma): > 100 µM | GI50 (COLO 205 colon): > 100 µM | TGI (COLO 205 colon): > 100 µM | GI50 (NCI-H226 lung): > 100 µM | TGI (NCI-H226 lung): > 100 µM | GI50 (HOP-62 NSCLC): > 100 µM | TGI (HOP-62 NSCLC): > 100 µM | GI50 (SR leukemia): 4890 nM | TGI (SR leukemia): > 100 µM | GI50 (U251 CNS): > 100 µM | TGI (U251 CNS): > 100 µM | GI50 (ACHN renal): > 100 µM | TGI (ACHN renal): > 100 µM | GI50 (CCRF-CEM leukemia): 5.88 µM | TGI (CCRF-CEM leukemia): > 100 µM | GI50 (HT29 colon): > 100000 nM | TGI (HT29 colon): > 100 µM

CC[C@@H]1OC2(C)CC(S(=O)(=O)c3ccccc3)CC1O2 (some centres undefined)
TGI (SK-MEL-5 melanoma): > 100 µM | TGI (UACC-257 melanoma): > 100 µM | TGI (COLO 205 colon): > 100 µM | TGI (NCI-H226 lung): > 100 µM | TGI (HOP-62 NSCLC): > 100 µM | TGI (SR leukemia): > 100 µM | TGI (U251 CNS): > 100 µM | TGI (ACHN renal): > 100 µM | TGI (CCRF-CEM leukemia): > 100 µM | TGI (HT29 colon): > 100 µM

CN(C)c1ccc(/C=C/c2ccnc3ccccc23)cc1
GI50 (SK-MEL-5 melanoma): 2480 nM | TGI (SK-MEL-5 melanoma): > 100 µM and 11.7 µM | GI50 (UACC-257 melanoma): 22.2 µM | TGI (UACC-257 melanoma): > 100 µM and 71.2 µM | GI50 (COLO 205 colon): 3.37 µM | TGI (COLO 205 colon): > 100 µM and 16 µM | GI50 (NCI-H226 lung): 3 µM | TGI (NCI-H226 lung): 48 µM | GI50 (HOP-62 NSCLC): 3.34 µM | TGI (HOP-62 NSCLC): > 100 µM and 16.6 µM | TGI (SR leukemia): > 100 µM | GI50 (U251 CNS): 4.04 µM | TGI (U251 CNS): > 100 µM and 63.4 µM | GI50 (ACHN renal): 5.58 µM | TGI (ACHN renal): > 100 µM | GI50 (CCRF-CEM leukemia): 4.52 µM | TGI (CCRF-CEM leukemia): > 100 µM | GI50 (HT29 colon): 3180 nM | TGI (HT29 colon): 84.3 µM and 11.8 µM

O=c1c([Se]c2coc3ccccc3c2=O)coc2ccccc12
TGI (SK-MEL-5 melanoma): 29.9 µM | TGI (UACC-257 melanoma): 31.3 µM | TGI (COLO 205 colon): 29.7 µM | TGI (NCI-H226 lung): 28.2 µM | TGI (HOP-62 NSCLC): 21.1 µM | TGI (SR leukemia): 22.4 µM | TGI (U251 CNS): 19.8 µM | TGI (ACHN renal): 32.1 µM | TGI (CCRF-CEM leukemia): > 100 µM | TGI (HT29 colon): 32.4 µM
